Measured values reported in PubChem BioAssay (NCI).
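96-well plates; 48 h exposure; 5 concentrations. Endpoints by linear interpolation between flanking doses. Not reached: highest tested concentration assigned. TGI denotes the concentration required for complete inhibition of growth.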

What was measured:
Assay in all cases: NCI-60 cell line screen, 48 h
786-0 renal = system: 786-0 renal
A498 renal = system: A498 renal
A549 NSCLC = system: A549 NSCLC
ACHN renal = system: ACHN renal
CAKI-1 renal = system: CAKI-1 renal
CCRF-CEM leukemia = system: CCRF-CEM leukemia
COLO 205 colon = system: COLO 205 colon
DU-145 prostate = system: DU-145 prostate
EKVX NSCLC = system: EKVX NSCLC
HCC-2998 colon = system: HCC-2998 colon
HCT-116 colon = system: HCT-116 colon
HCT-15 colon = system: HCT-15 colon
HL-60(TB) leukemia = system: HL-60(TB) leukemia
HOP-62 NSCLC = system: HOP-62 NSCLC
HOP-92 NSCLC = system: HOP-92 NSCLC
HS 578T breast = system: HS 578T breast
HT29 colon = system: HT29 colon
IGROV1 ovarian = system: IGROV1 ovarian
K-562 leukemia = system: K-562 leukemia
KM12 colon = system: KM12 colon
LOX IMVI melanoma = system: LOX IMVI melanoma
M14 melanoma = system: M14 melanoma
MALME-3M melanoma = system: MALME-3M melanoma
MCF7 breast = system: MCF7 breast
MDA-MB-231 breast = system: MDA-MB-231 breast
MDA-MB-435 = system: MDA-MB-435
MDA-N = system: MDA-N
MOLT-4 leukemia = system: MOLT-4 leukemia
NCI-H226 lung = system: NCI-H226 lung
NCI-H23 lung = system: NCI-H23 lung
NCI-H460 lung = system: NCI-H460 lung
NCI-H522 lung = system: NCI-H522 lung
NCI/ADR-RES ovarian = system: NCI/ADR-RES ovarian
OVCAR-3 ovarian = system: OVCAR-3 ovarian
OVCAR-4 ovarian = system: OVCAR-4 ovarian
OVCAR-5 ovarian = system: OVCAR-5 ovarian
OVCAR-8 ovarian = system: OVCAR-8 ovarian
PC-3 prostate = system: PC-3 prostate
RPMI-8226 leukemia = system: RPMI-8226 leukemia
RXF 393 renal = system: RXF 393 renal
SF-268 CNS = system: SF-268 CNS
SF-295 CNS = system: SF-295 CNS
SF-539 CNS = system: SF-539 CNS
SK-MEL-2 melanoma = system: SK-MEL-2 melanoma
SK-MEL-28 melanoma = system: SK-MEL-28 melanoma
SK-MEL-5 melanoma = system: SK-MEL-5 melanoma
SK-OV-3 ovarian = system: SK-OV-3 ovarian
SN12C renal = system: SN12C renal
SNB-19 CNS = system: SNB-19 CNS
SNB-75 CNS = system: SNB-75 CNS
SR leukemia = system: SR leukemia
SW-620 colon = system: SW-620 colon
T-47D breast = system: T-47D breast
TK-10 renal = system: TK-10 renal
U251 CNS = system: U251 CNS
UACC-257 melanoma = system: UACC-257 melanoma
UACC-62 melanoma = system: UACC-62 melanoma
UO-31 renal = system: UO-31 renal

Measured: TGI

C[C@@H]1OCC(O)C([C@H]2OC(c3ccccc3)=N[C@H]2CO)O1 (stereo partly drawn)
> 100 µM: all assays above
